#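 Protocol summary: plate cells (96-well), add compound at 5 concentrations, incubate 48 h, interpolate endpoints linearly. GI50: concentration for 50% inhibition of growth.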 The source made the active and inactive calls. Rule as the data show it: active = GI50 up to about 1.1 µM and inactive = higher.
# Key:
# Assay in all cases: NCI-60 cell line screen, 48 h
# SR = test system: SR
# MDA-MB-231 = test system: MDA-MB-231
# SK-MEL-2 = test system: SK-MEL-2
# DMS-114 = test system: DMS-114
# MOLT-4 = test system: MOLT-4
# RPMI-8226 = test system: RPMI-8226
# IGROV-1 = test system: IGROV-1
# MCF7 = test system: MCF7
# M14 = test system: M14
# M19-MEL = test system: M19-MEL
# SK-MEL-5 = test system: SK-MEL-5
# SNB-75 = test system: SNB-75
# OVCAR-4 = test system: OVCAR-4
# UACC-62 = test system: UACC-62
# COLO 205 = test system: COLO 205
# OVCAR-3 = test system: OVCAR-3
# RXF 631 = test system: RXF 631
# SF-268 = test system: SF-268
# MDA-MB-435 = test system: MDA-MB-435
# NCI-H226 = test system: NCI-H226
# HCC 2998 = test system: HCC 2998
# MDA-N = test system: MDA-N
# EKVX = test system: EKVX
# NCI-H460 = test system: NCI-H460
# HL-60 = test system: HL-60
# NCI-H23 = test system: NCI-H23
# UO-31 = test system: UO-31
# U-251 = test system: U-251
# LOX IMVI = test system: LOX IMVI
# ACHN = test system: ACHN
# KM-20L2 = test system: KM-20L2
# SF-539 = test system: SF-539
# SF-295 = test system: SF-295
# Hs-578T = test system: Hs-578T
# K562 = test system: K562
# CCRF-CEM = test system: CCRF-CEM
# DMS-273 = test system: DMS-273
# A498 = test system: A498
# Malme-3M = test system: Malme-3M
# TK-10 = test system: TK-10
# SN12C = test system: SN12C
# OVCAR-5 = test system: OVCAR-5
# SW-620 = test system: SW-620
# XF498 = test system: XF498
# RXF 393 = test system: RXF 393
# SNB-19 = test system: SNB-19
# SNB-78 = test system: SNB-78
# HOP-92 = test system: HOP-92
# CAKI-1 = test system: CAKI-1
# UACC-257 = test system: UACC-257
# HT-29 = test system: HT-29
# BT-549 = test system: BT-549
# DLD-1 = test system: DLD-1
# NCI-H522 = test system: NCI-H522
# HOP-62 = test system: HOP-62
# T47D = test system: T47D
# NCI/ADR-RES = test system: NCI/ADR-RES
# OVCAR-8 = test system: OVCAR-8
# HCT-116 = test system: HCT-116
# HCT-15 = test system: HCT-15
# SK-MEL-28 = test system: SK-MEL-28
# SK-OV-3 = test system: SK-OV-3
# A549 = test system: A549
# KM12 = test system: KM12
# PC-3 = test system: PC-3
# DU-145 = test system: DU-145
# 786-0 = test system: 786-0
# HOP-18 = test system: HOP-18
# LXFL 529 = test system: LXFL 529
smiles,measurement,setting,value
O=C(NC(=O)c1c(Cl)nc2sccn12)Nc1ccc(Cl)cc1,GI50,SR,> 100 µM (inactive)
same,GI50,MDA-MB-231,25.5 µM (inactive)
same,GI50,SK-MEL-2,59.3 µM (inactive)
same,GI50,DMS-114,> 71.3 µM (inactive)
same,GI50,MOLT-4,> 100 µM (inactive)
same,GI50,RPMI-8226,> 100 µM (inactive)
same,GI50,IGROV-1,49.4 µM (inactive)
same,GI50,MCF7,15.5 µM (inactive)
same,GI50,M14,78.3 µM (inactive)
same,GI50,M19-MEL,> 100 µM (inactive)
same,GI50,SK-MEL-5,> 88.3 µM (inactive)
same,GI50,SNB-75,19.9 µM (inactive)
same,GI50,OVCAR-4,75.3 µM (inactive)
same,GI50,UACC-62,> 100 µM (inactive)
same,GI50,COLO 205,> 100 µM (inactive)
same,GI50,OVCAR-3,71.4 µM (inactive)
same,GI50,RXF 631,> 79.4 µM (inactive)
same,GI50,SF-268,26.2 µM (inactive)
same,GI50,MDA-MB-435,> 100 µM (inactive)
same,GI50,NCI-H226,45.2 µM (inactive)
same,GI50,HCC 2998,54.1 µM (inactive)
same,GI50,MDA-N,> 100 µM (inactive)
same,GI50,EKVX,> 91.6 µM (inactive)
same,GI50,NCI-H460,> 85.9 µM (inactive)
same,GI50,HL-60,> 100 µM (inactive)
same,GI50,NCI-H23,33.5 µM (inactive)
same,GI50,UO-31,67.1 µM (inactive)
same,GI50,U-251,24.8 µM (inactive)
same,GI50,LOX IMVI,63.4 µM (inactive)
same,GI50,ACHN,77.4 µM (inactive)
same,GI50,KM-20L2,> 100 µM (inactive)
same,GI50,SF-539,30 µM (inactive)
same,GI50,SF-295,33.6 µM (inactive)
same,GI50,Hs-578T,8.81 µM (inactive)
same,GI50,K562,> 100 µM (inactive)
same,GI50,CCRF-CEM,> 100 µM (inactive)
same,GI50,DMS-273,> 46.3 µM (inactive)
same,GI50,A498,49.3 µM (inactive)
same,GI50,Malme-3M,84.3 µM (inactive)
same,GI50,TK-10,35.6 µM (inactive)
same,GI50,SN12C,86.5 µM (inactive)
same,GI50,OVCAR-5,> 100 µM (inactive)
same,GI50,SW-620,> 100 µM (inactive)
same,GI50,XF498,17.9 µM (inactive)
same,GI50,RXF 393,30.9 µM (inactive)
same,GI50,SNB-19,28.4 µM (inactive)
same,GI50,SNB-78,43.1 µM (inactive)
same,GI50,HOP-92,25.1 µM (inactive)
same,GI50,CAKI-1,> 83.9 µM (inactive)
same,GI50,UACC-257,> 100 µM (inactive)
same,GI50,HT-29,> 100 µM (inactive)
same,GI50,BT-549,28.4 µM (inactive)
same,GI50,DLD-1,> 48.3 µM (inactive)
same,GI50,NCI-H522,61 µM (inactive)
same,GI50,HOP-62,19.5 µM (inactive)
same,GI50,T47D,13.7 µM (inactive)
same,GI50,NCI/ADR-RES,> 70.3 µM (inactive)
same,GI50,OVCAR-8,52.6 µM (inactive)
same,GI50,HCT-116,69.2 µM (inactive)
same,GI50,HCT-15,> 96.4 µM
same,GI50,SK-MEL-28,> 100 µM (inactive)
same,GI50,SK-OV-3,27.4 µM (inactive)
same,GI50,A549,81.3 µM (inactive)
same,GI50,KM12,> 93.5 µM (inactive)
same,GI50,PC-3,53 µM (inactive)
same,GI50,DU-145,> 83.4 µM (inactive)
same,GI50,786-0,35.4 µM (inactive)
COc1cc(O)c(C(=O)CC(C)=O)c(OC)c1,GI50,SK-MEL-2,> 100 µM (inactive)
same,GI50,DMS-114,> 100 µM (inactive)
same,GI50,MOLT-4,> 100 µM (inactive)
same,GI50,RPMI-8226,> 100 µM (inactive)
same,GI50,IGROV-1,> 100 µM (inactive)
same,GI50,M14,> 100 µM (inactive)
same,GI50,SK-MEL-5,> 100 µM (inactive)
same,GI50,SNB-75,76.4 µM (inactive)
same,GI50,OVCAR-4,> 100 µM (inactive)
same,GI50,UACC-62,> 100 µM (inactive)
same,GI50,COLO 205,> 100 µM (inactive)
same,GI50,OVCAR-3,> 100 µM (inactive)
same,GI50,SF-268,> 100 µM (inactive)
same,GI50,NCI-H226,> 100 µM (inactive)
same,GI50,HCC 2998,> 100 µM (inactive)
same,GI50,EKVX,> 100 µM (inactive)
same,GI50,NCI-H460,> 100 µM (inactive)
same,GI50,HL-60,> 100 µM (inactive)
same,GI50,NCI-H23,> 100 µM (inactive)
same,GI50,UO-31,> 100 µM (inactive)
same,GI50,U-251,> 100 µM (inactive)
same,GI50,LOX IMVI,> 100 µM (inactive)
same,GI50,ACHN,> 100 µM (inactive)
same,GI50,KM-20L2,> 100 µM (inactive)
same,GI50,SF-539,> 100 µM (inactive)
same,GI50,SF-295,> 100 µM (inactive)
same,GI50,K562,> 100 µM (inactive)
same,GI50,CCRF-CEM,> 100 µM (inactive)
same,GI50,DMS-273,> 100 µM (inactive)
same,GI50,Malme-3M,> 100 µM (inactive)
same,GI50,TK-10,> 100 µM (inactive)
same,GI50,SN12C,> 100 µM (inactive)
same,GI50,OVCAR-5,> 100 µM (inactive)
same,GI50,SW-620,> 100 µM (inactive)
same,GI50,XF498,> 100 µM (inactive)
same,GI50,RXF 393,> 100 µM (inactive)
same,GI50,SNB-19,> 100 µM (inactive)
same,GI50,SNB-78,> 100 µM (inactive)
same,GI50,HOP-18,> 100 µM (inactive)
same,GI50,CAKI-1,> 100 µM (inactive)
same,GI50,UACC-257,> 100 µM (inactive)
same,GI50,HT-29,> 100 µM (inactive)
same,GI50,DLD-1,> 100 µM (inactive)
same,GI50,NCI-H522,> 100 µM (inactive)
same,GI50,HOP-62,> 100 µM (inactive)
same,GI50,OVCAR-8,> 100 µM (inactive)
same,GI50,HCT-116,> 100 µM (inactive)
same,GI50,SK-MEL-28,> 100 µM (inactive)
same,GI50,SK-OV-3,> 100 µM (inactive)
same,GI50,A549,> 100 µM (inactive)
same,GI50,KM12,> 100 µM (inactive)
same,GI50,786-0,> 100 µM (inactive)
same,GI50,LXFL 529,> 100 µM (inactive)

# — ChEMBL document CHEMBL1201862, “PubChem BioAssay data set” (2004)
